{"source": "ChEMBL document CHEMBL2010679", "about": "“Development of a new class of aromatase inhibitors: design, synthesis and inhibitory activity of 3-phenylchroman-4-one (isoflavanone) derivatives” (Bioorg Med Chem, 2012)", "data": [{"target": "T1, Aromatase (Homo sapiens, UniProt P11511)", "T1 sequence (P11511 whole entry)": "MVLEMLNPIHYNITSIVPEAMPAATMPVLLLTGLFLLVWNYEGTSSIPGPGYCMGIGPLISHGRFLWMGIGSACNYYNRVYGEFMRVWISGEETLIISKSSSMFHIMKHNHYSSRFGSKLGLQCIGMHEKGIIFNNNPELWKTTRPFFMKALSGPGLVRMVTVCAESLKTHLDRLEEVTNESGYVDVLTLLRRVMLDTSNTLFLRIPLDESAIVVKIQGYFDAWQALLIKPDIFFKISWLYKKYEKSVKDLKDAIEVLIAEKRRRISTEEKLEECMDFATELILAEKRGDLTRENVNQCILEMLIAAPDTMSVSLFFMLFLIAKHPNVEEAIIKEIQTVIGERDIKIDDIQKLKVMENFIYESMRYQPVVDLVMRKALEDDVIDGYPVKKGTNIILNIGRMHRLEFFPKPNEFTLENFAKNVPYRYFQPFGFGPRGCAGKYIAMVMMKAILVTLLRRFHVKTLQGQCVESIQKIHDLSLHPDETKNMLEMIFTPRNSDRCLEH", "details": "not given; call rule not given here", "units": {"IC50": "µM"}, "values": [{"smiles": "O=C1c2ccccc2OC(O)C1c1ccccc1", "note": "(centres undefined)", "IC50": 170}, {"smiles": "O=C1c2ccccc2OCC1c1ccc(O)cc1", "note": "(centres undefined)", "IC50": 160}, {"smiles": "O=C1c2ccccc2OCC1c1ccc(O)c(O)c1", "note": "(centres undefined)", "IC50": "≥ 200"}]}, {"target": "T1, Aromatase", "experiment": "(§1) Inhibition of human recombinant aromatase expressed in baculovirus/insect cells using 7-methoxy-trifluoromethylcoumarin as substrate after 30 mins by fluorescence-based spectrophotometry", "details": "not given", "values": [{"smiles": "O=C1c2ccccc2OCC1c1ccc(-c2ccccc2)cc1", "note": "(racemic)", "IC50": "Not Active"}, {"smiles": "O=C1c2ccccc2OCC1c1cc2ccccc2c2ccccc12", "note": "(racemic)", "IC50": "Not Active"}]}, {"target": "T1, Aromatase", "experiment": "as §1", "details": "read-out: IC50", "units": {"IC50": "µM"}, "values": [{"smiles": "COc1ccc2c(c1)OCC(c1ccccc1)C2=O", "note": "(racemic)", "IC50": 41}, {"smiles": "Cc1ccc2c(c1)C(=O)C(c1ccccc1)CO2", "note": "(racemic)", "IC50": 44}, {"smiles": "Cc1ccc2c(c1)OCC(c1ccccc1)C2=O", "note": "(racemic)", "IC50": 18}, {"smiles": "Cc1cccc(C2COc3ccccc3C2=O)c1", "note": "(racemic)", "IC50": 20}, {"smiles": "Cc1ccc(C2COc3ccccc3C2=O)cc1", "note": "(racemic)", "IC50": 41}, {"smiles": "O=C1c2c(ccc3ccccc23)OCC1c1ccccc1", "note": "(racemic)", "IC50": 20}, {"smiles": "O=C1c2ccccc2OCC1c1ccc(Oc2ccccc2)cc1", "note": "(racemic)", "IC50": 2.4}, {"smiles": "COc1ccc2c(c1)C(=O)C(c1ccccc1)CO2", "note": "(racemic)", "IC50": 0.26}, {"smiles": "COc1ccccc1C1COc2ccccc2C1=O", "note": "(racemic)", "IC50": 97}, {"smiles": "COc1cccc(C2COc3ccccc3C2=O)c1", "note": "(racemic)", "IC50": 99}, {"smiles": "COc1ccc(C2COc3ccccc3C2=O)cc1", "note": "(racemic)", "IC50": 24}, {"smiles": "COc1cc(OC)cc(C2COc3ccccc3C2=O)c1", "note": "(racemic)", "IC50": 11}, {"smiles": "O=C1c2ccccc2OCC1c1ccsc1", "note": "(racemic)", "IC50": 30}, {"smiles": "O=C1c2ccccc2OCC1c1cccnc1", "note": "(racemic)", "IC50": 5.8}, {"smiles": "O=C1c2cc(F)ccc2OCC1c1ccccc1", "note": "(racemic)", "IC50": 32}, {"smiles": "O=C1c2cc(Cl)ccc2OCC1c1ccccc1", "note": "(racemic)", "IC50": 5.1}, {"smiles": "O=C1c2cc(Br)ccc2OCC1c1ccccc1", "note": "(racemic)", "IC50": 29}, {"smiles": "CC(C)(C)c1ccc2c(c1)C(=O)C(c1ccccc1)CO2", "note": "(racemic)", "IC50": 61}, {"smiles": "O=C1c2ccccc2OCC1c1ccccc1", "note": "(racemic) [ISOFLAVANONE]", "IC50": 29}]}]}
